Publication PMC9832397 (Nature chemistry, 2022)
Blank lines part the entries; values can stand above or below the compound they belong to.

Experiments:
[1] = target: DEBS module 6 including its C-terminal TE domain (DEBS M6+TE), wildtype (Saccharopolyspora erythraea); test: SEC
DEBS M6+TE (WT) = DEBS M6+TE (WT) (Saccharopolyspora erythraea, UniProt Q03133); test: NADPH consumption assay; format: biochemical; conditions: 400 mM phosphate pH 7.2, 25 °C
[2] = target: T1, MAT (malonyl-/acetyl transferase domain of murine FAS) (Mus musculus, UniProt P19096); test: enzyme-coupled fluorometric transacylation assay; format: biochemical; conditions: individual domains; acceptor DEBS ACP6 presumed
T1 sequence (P19096 488-816 limits assumed): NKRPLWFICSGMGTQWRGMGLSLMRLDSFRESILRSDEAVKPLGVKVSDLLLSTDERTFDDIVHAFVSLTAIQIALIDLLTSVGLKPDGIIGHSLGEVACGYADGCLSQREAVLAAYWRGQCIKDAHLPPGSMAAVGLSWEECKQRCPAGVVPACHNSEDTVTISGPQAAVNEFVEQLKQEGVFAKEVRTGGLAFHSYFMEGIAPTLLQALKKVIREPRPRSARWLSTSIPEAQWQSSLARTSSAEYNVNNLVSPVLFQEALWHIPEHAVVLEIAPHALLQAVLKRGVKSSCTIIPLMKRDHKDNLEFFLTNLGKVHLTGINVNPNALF

Sequence of DEBS M6+TE (WT) (Q03133 1470-3172 limits assumed): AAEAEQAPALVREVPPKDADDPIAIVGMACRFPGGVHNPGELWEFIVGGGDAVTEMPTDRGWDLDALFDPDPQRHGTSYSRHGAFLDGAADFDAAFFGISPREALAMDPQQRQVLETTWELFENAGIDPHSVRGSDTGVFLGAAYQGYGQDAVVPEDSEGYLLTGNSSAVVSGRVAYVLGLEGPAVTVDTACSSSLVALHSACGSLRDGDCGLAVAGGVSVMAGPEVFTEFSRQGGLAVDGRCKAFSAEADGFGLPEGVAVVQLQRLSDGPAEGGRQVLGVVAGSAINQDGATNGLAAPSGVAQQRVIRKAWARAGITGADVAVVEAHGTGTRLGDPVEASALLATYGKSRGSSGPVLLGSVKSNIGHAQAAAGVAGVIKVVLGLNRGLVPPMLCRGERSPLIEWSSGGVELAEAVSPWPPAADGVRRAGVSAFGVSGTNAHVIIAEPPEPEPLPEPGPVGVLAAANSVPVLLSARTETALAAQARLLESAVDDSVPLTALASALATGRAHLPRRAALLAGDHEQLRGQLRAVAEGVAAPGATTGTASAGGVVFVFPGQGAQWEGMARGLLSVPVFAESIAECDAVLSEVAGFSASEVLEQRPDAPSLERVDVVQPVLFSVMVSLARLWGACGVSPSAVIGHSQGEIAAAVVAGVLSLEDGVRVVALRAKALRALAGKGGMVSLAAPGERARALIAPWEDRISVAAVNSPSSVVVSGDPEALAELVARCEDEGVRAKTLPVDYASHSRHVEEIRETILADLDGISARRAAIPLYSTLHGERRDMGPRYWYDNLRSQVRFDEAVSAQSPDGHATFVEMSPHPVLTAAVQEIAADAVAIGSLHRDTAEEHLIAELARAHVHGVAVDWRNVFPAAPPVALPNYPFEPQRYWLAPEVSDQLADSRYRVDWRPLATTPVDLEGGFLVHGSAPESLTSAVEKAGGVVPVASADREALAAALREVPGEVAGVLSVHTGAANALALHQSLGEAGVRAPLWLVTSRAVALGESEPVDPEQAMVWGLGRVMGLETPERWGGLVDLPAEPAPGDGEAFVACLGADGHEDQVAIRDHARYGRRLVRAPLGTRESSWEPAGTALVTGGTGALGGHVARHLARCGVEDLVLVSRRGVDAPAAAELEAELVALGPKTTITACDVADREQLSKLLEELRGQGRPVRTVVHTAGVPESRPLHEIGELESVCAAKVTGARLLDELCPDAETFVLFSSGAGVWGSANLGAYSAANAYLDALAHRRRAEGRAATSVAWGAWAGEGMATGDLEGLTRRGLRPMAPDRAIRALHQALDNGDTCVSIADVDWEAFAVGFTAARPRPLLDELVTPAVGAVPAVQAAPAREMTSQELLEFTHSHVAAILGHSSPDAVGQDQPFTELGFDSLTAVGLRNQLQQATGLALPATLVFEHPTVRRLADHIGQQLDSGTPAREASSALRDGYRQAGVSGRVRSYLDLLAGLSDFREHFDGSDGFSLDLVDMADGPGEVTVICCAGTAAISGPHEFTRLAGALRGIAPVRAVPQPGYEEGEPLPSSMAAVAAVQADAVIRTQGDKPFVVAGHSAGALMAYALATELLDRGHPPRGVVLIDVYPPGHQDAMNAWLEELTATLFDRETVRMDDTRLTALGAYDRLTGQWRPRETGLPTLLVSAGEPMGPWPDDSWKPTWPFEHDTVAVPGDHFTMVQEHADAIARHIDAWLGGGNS
Sequence of DEBS module 6 including its C-terminal TE domain (DEBS M6+TE), wildtype (domain or fragment) (Q03133 2-3172): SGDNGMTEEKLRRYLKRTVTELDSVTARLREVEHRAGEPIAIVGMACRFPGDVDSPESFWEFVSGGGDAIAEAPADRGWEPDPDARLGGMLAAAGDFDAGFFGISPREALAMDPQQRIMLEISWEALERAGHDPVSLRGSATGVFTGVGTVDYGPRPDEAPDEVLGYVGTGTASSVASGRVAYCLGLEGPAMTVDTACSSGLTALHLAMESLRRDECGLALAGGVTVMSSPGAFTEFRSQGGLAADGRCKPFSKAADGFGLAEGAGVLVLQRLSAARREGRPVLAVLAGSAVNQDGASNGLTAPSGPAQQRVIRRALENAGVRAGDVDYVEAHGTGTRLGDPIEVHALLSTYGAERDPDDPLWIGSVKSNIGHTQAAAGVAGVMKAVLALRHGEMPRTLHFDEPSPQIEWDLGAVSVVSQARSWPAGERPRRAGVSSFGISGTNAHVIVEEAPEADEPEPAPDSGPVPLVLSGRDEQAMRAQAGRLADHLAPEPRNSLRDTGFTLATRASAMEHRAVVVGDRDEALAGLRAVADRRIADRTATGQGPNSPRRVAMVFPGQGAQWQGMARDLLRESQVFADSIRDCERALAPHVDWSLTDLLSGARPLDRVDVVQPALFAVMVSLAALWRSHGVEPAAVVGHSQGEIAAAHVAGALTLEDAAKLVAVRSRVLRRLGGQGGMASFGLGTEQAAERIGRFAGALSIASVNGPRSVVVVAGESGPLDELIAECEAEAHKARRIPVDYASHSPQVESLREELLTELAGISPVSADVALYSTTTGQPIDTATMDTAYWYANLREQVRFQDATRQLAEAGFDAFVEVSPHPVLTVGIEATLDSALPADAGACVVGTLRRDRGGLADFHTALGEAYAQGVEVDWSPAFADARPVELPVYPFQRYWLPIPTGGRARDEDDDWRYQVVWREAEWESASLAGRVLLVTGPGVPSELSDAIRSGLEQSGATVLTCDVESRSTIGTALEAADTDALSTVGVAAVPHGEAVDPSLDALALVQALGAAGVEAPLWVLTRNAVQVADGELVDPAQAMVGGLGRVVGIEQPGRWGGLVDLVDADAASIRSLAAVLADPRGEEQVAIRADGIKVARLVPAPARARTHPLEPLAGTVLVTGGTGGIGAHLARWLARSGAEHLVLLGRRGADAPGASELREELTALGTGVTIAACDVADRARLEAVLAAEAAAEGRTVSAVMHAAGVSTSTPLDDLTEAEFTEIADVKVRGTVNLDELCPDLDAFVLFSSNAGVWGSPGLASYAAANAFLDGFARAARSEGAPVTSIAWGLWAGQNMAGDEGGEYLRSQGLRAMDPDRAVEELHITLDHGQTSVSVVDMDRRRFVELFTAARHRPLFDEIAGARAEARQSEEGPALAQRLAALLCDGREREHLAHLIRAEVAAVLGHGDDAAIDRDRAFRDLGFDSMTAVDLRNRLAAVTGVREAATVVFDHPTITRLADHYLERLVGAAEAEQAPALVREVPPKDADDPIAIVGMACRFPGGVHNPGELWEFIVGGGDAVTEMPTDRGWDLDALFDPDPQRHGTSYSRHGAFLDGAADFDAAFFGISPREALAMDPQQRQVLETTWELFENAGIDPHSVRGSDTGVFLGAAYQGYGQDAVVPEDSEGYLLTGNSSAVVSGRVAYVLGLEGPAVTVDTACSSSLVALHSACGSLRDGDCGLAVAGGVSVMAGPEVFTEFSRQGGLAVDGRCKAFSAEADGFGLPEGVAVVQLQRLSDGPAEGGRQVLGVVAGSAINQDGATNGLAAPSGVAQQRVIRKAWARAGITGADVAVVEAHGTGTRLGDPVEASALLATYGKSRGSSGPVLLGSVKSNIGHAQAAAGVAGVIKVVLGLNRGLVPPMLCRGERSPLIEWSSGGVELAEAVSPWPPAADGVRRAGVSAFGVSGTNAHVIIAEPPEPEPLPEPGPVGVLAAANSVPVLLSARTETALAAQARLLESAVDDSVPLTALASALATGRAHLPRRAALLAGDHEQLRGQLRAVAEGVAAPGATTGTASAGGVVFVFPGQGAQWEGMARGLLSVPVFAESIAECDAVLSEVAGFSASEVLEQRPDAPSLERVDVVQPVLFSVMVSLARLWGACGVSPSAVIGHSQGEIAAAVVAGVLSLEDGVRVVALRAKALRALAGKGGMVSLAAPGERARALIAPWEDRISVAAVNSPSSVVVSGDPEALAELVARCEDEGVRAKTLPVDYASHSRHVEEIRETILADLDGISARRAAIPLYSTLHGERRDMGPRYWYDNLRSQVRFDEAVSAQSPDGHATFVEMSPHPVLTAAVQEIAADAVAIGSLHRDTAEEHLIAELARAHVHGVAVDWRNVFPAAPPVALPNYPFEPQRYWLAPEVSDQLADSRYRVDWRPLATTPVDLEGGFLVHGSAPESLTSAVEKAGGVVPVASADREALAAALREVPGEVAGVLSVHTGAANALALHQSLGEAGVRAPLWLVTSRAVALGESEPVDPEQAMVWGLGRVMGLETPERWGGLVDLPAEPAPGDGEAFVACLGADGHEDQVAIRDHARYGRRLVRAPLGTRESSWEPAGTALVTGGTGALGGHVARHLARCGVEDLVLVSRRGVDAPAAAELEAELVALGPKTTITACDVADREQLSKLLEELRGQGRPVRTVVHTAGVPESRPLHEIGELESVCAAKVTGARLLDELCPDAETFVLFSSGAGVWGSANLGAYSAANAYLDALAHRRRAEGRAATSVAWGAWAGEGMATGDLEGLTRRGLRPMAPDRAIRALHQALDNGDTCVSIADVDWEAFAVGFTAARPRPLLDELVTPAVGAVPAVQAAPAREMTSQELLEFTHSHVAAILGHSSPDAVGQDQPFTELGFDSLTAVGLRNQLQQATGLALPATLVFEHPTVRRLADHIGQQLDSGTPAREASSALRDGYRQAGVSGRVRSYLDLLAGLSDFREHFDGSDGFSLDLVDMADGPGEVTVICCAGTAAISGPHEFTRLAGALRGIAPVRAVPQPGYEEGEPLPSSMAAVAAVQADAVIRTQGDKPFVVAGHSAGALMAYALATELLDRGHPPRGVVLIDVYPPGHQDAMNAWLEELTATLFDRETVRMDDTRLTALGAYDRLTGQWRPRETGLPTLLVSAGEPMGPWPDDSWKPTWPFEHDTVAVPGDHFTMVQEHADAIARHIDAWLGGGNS

stoichiometry N [1]: 2
Compound: DEBS module 6 including its C-terminal TE domain (DEBS M6+TE), wildtype (domain or fragment)

Compound: CC(C(=O)O)C(=O)SCCNC(=O)CCNC(=O)[C@H](O)C(C)(C)COP(=O)(O)OP(=O)(O)OC[C@H]1O[C@@H](n2cnc3c(N)ncnc32)[C@H](O)[C@@H]1OP(=O)(O)O (some centres unmarked) [MM-CoA]
turnover rate (DEBS M6+TE (WT); diketide 2, NADPH): Turnover rates for the WT-, H1- and H2-mediated formation of TKLs

Compound: CC(C)(COP(=O)(O)OP(=O)(O)OC[C@H]1O[C@@H](n2cnc3c(N)ncnc32)[C@H](O)[C@@H]1OP(=O)(O)O)[C@@H](O)C(=O)NCCC(=O)NCCSC(=O)C(F)C(=O)O (mixture of isomers) [compound 1, F-Mal-CoA]
Km [2]: we observed excellent transfer kinetics of MAT for F-Mal-CoA

Compound: CC(F)(C(=O)O)C(=O)SCCNC(=O)CCNC(=O)[C@H](O)C(C)(C)COP(=O)(O)OP(=O)(O)OC[C@H]1O[C@@H](n2cnc3c(N)ncnc32)[C@H](O)[C@@H]1OP(=O)(O)O (mixture of isomers) [compound 17, F-MM-CoA]
Km [2]: the MAT showed excellent transfer kinetics for F-MM-CoA

Compound: CC[C@@H](O)[C@H](C)C(=O)SCCNC(C)=O [compound 2, (2S,3R)-2-methyl-3-hydroxypentanoyl-N-acetylcysteamine thioester]
turnover rate (DEBS M6+TE (WT); MM-CoA, NADPH): Turnover rates for the WT-, H1- and H2-mediated formation of TKLs
